{"source": "ChEMBL document CHEMBL3132769", "about": "“Fragment growing to retain or alter the selectivity of anchored kinase hinge-binding fragments” (Medchemcomm, 2014)", "key": {"[1]": {"target": "Insulin receptor (Homo sapiens) (UniProt P06213)", "assay": "Inhibition of human INSR catalytic domain expressed in baculovirus assessed as substrate phosphorylation using fluorescence-labelled peptides as substrate at 95 uM after 90 mins by microfluidic peptide phosphorylation assay"}, "[2]": {"target": "Protein kinase C eta type (Homo sapiens) (UniProt P24723)", "sequence (P24723 whole entry, the tested form may be a part)": "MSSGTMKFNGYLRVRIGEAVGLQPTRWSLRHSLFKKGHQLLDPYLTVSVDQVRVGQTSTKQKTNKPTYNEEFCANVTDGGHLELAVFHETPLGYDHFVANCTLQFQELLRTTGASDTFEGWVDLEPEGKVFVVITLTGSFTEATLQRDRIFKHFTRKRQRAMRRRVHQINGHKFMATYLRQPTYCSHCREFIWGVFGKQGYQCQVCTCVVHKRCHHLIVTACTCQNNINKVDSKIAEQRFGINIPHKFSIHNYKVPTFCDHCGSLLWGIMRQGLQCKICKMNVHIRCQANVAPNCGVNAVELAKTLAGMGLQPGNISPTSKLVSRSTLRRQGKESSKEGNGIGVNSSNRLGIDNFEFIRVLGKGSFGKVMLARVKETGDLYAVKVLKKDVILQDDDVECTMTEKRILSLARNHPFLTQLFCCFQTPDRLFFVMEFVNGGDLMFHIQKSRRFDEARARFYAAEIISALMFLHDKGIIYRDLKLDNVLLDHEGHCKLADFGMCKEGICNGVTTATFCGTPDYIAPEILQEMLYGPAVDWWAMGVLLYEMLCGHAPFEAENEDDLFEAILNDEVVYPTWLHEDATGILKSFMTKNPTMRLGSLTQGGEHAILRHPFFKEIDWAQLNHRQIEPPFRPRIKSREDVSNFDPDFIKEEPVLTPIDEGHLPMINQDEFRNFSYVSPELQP", "assay": "Inhibition of human truncated PKC eta expressed in baculovirus assessed as substrate phosphorylation using fluorescence-labelled peptides as substrate at 95 uM after 90 mins by microfluidic peptide phosphorylation assay"}, "[3]": {"target": "Vascular endothelial growth factor receptor 2 (Homo sapiens) (UniProt P35968)", "sequence (P35968 whole entry, the tested form may be a part)": "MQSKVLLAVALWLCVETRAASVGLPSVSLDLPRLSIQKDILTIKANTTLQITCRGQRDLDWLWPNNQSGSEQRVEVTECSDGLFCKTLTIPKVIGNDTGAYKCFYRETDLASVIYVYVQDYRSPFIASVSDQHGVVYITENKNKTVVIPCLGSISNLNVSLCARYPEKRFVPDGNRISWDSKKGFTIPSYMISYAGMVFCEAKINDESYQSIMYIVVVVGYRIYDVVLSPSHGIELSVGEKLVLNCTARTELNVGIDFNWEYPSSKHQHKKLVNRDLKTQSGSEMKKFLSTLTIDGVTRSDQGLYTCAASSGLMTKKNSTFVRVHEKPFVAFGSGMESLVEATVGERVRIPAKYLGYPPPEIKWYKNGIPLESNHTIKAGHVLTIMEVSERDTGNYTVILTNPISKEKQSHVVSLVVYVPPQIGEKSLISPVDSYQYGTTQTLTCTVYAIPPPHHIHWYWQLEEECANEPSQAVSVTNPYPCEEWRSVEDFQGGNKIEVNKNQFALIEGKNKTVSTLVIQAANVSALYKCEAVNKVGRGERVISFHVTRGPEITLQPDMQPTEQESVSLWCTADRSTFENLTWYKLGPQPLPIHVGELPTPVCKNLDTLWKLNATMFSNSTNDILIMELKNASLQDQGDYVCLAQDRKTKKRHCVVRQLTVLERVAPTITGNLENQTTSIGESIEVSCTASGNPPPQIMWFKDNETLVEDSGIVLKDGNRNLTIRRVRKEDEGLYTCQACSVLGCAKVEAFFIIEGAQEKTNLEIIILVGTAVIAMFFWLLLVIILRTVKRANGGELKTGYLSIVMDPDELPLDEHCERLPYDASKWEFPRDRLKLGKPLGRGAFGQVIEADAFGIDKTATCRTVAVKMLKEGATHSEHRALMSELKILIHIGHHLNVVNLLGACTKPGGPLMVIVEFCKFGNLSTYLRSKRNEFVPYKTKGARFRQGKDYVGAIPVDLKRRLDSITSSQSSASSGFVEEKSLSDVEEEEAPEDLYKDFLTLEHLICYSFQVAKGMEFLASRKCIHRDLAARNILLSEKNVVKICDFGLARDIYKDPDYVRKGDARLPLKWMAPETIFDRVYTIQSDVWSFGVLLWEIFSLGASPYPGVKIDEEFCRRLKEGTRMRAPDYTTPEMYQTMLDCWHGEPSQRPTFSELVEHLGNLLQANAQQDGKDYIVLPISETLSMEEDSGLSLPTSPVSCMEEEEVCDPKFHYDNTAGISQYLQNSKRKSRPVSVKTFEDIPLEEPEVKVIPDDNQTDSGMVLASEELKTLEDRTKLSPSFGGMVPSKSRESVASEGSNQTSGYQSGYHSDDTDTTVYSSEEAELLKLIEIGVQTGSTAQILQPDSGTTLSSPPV", "assay": "Inhibition of human KDR cytoplasmic domain expressed in baculovirus assessed as substrate phosphorylation using fluorescence-labelled peptides as substrate at 8 uM after 90 mins by microfluidic peptide phosphorylation assay"}, "[4]": {"target": "T1, Serine/threonine-protein kinase D3 (Homo sapiens) (UniProt O94806)", "T1 sequence (whole entry)": "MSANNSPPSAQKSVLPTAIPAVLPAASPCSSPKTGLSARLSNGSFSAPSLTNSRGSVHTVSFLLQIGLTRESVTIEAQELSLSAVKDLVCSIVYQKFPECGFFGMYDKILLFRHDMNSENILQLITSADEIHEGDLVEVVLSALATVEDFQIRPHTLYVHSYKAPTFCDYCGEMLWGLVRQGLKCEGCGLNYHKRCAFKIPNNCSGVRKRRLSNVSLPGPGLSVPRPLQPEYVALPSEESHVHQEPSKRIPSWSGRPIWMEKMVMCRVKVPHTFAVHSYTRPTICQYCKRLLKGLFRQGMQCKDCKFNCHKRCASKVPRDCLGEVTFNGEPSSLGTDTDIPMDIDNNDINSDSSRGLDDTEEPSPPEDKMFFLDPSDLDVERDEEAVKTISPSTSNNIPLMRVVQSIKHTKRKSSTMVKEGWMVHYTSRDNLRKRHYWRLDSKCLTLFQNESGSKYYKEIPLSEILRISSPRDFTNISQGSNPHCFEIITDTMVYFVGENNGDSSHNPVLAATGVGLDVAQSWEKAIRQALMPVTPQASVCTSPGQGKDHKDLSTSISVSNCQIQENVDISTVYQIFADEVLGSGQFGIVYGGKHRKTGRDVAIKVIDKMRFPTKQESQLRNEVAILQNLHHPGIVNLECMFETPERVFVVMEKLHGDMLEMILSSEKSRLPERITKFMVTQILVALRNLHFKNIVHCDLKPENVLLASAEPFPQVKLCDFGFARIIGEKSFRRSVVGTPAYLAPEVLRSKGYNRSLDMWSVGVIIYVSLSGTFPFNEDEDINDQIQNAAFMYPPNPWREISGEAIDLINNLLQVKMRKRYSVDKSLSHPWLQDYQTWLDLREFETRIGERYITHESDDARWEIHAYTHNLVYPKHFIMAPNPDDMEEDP", "assay": "Inhibition of human full length PKD3 expressed in baculovirus assessed as substrate phosphorylation using fluorescence-labelled peptides as substrate at 2 uM after 90 mins by microfluidic peptide phosphorylation assay"}, "[5]": {"target": "T2, Inhibitor of nuclear factor kappa-B kinase subunit beta (Homo sapiens) (UniProt O14920)", "T2 sequence (whole entry)": "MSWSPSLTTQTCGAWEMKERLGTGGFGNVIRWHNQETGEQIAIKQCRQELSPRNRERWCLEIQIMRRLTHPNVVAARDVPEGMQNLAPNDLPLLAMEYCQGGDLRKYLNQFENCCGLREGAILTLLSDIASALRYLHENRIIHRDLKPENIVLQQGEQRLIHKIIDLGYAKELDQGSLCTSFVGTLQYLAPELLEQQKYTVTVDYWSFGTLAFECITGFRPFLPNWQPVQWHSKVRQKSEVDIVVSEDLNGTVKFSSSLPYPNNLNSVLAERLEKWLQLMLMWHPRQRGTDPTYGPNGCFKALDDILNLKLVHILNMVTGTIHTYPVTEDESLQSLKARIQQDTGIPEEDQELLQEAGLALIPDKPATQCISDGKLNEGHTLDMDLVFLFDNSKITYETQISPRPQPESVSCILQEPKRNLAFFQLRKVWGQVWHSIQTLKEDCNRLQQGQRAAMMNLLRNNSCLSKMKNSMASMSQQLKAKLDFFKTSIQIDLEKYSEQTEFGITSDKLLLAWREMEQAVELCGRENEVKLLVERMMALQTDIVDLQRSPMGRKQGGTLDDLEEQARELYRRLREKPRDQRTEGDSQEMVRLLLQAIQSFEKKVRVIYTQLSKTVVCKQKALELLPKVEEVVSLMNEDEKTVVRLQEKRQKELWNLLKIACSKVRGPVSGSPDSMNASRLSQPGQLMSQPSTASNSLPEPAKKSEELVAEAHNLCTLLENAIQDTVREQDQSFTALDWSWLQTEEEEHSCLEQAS", "assay": "Inhibition of human full length IKK beta expressed in baculovirus assessed as substrate phosphorylation using fluorescence-labelled peptides as substrate at 1000 uM after 90 mins by microfluidic peptide phosphorylation assay"}, "[6]": {"target": "RAF proto-oncogene serine/threonine-protein kinase (Homo sapiens) (UniProt P04049)", "sequence (P04049 whole entry, the tested form may be a part)": "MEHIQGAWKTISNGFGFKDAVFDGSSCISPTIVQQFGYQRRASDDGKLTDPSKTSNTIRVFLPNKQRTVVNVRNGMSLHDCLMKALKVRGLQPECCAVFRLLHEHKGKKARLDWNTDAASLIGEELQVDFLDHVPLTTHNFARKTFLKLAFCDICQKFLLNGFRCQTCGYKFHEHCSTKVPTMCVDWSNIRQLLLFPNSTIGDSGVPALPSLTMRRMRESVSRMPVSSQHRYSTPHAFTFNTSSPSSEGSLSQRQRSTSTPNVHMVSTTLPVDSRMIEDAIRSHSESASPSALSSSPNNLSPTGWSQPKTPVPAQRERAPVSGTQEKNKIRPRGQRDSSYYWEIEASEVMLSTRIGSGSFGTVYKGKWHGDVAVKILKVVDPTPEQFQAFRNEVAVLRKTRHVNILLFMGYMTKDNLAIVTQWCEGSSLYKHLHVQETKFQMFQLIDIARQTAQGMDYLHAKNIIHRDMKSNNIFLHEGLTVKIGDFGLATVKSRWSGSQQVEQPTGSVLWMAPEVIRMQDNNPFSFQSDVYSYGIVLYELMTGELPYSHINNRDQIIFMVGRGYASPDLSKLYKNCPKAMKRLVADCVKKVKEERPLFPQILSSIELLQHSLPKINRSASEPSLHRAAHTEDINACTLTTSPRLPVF", "assay": "Inhibition of human truncated c-Raf expressed in baculovirus assessed as substrate phosphorylation using fluorescence-labelled peptides as substrate at 0.06 uM after 90 mins by microfluidic peptide phosphorylation assay"}, "[7]": {"target": "Epidermal growth factor receptor (Homo sapiens) (UniProt P00533)", "sequence (P00533 whole entry, the tested form may be a part)": "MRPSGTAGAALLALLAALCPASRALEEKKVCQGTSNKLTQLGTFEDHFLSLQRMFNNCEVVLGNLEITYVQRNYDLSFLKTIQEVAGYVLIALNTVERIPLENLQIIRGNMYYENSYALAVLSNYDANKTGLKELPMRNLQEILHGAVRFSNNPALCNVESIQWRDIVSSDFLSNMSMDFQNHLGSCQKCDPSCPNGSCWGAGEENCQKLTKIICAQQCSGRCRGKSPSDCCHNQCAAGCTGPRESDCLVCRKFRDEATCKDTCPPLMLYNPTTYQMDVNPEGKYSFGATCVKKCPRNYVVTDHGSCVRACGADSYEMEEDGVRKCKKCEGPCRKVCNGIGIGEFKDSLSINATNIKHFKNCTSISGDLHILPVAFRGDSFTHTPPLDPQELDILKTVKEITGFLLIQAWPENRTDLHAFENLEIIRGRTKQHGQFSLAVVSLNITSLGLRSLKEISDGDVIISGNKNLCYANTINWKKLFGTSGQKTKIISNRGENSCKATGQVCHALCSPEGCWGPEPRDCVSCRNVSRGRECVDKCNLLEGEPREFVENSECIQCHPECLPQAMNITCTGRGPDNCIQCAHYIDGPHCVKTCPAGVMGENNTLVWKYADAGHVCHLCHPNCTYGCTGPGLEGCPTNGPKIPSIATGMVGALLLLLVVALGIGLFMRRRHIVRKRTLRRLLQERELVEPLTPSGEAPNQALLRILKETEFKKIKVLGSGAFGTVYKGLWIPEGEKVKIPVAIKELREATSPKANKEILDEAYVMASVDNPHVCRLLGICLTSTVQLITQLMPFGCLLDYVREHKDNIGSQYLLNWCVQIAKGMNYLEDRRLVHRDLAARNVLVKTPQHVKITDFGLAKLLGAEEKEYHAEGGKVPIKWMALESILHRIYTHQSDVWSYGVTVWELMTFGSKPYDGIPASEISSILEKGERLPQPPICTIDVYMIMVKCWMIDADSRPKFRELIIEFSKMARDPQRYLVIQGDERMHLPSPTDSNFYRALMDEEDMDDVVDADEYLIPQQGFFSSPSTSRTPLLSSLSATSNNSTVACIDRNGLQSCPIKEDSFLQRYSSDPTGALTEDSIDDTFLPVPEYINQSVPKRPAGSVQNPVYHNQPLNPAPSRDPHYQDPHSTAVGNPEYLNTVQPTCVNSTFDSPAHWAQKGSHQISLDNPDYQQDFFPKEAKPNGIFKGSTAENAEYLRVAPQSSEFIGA", "assay": "Inhibition of human EGFR catalytic domain expressed in baculovirus assessed as substrate phosphorylation using fluorescence-labelled peptides as substrate at 0.1 uM after 90 mins by microfluidic peptide phosphorylation assay"}, "[8]": {"target": "Rho-associated protein kinase 2 (Homo sapiens) (UniProt O75116)", "assay": "Inhibition of human ROCK2 catalytic domain expressed in baculovirus assessed as substrate phosphorylation using fluorescence-labelled peptides as substrate at 420 uM after 90 mins by microfluidic peptide phosphorylation assay"}, "[9]": {"target": "T3, Serine/threonine-protein kinase Sgk1 (Homo sapiens) (UniProt O00141)", "T3 sequence (whole entry)": "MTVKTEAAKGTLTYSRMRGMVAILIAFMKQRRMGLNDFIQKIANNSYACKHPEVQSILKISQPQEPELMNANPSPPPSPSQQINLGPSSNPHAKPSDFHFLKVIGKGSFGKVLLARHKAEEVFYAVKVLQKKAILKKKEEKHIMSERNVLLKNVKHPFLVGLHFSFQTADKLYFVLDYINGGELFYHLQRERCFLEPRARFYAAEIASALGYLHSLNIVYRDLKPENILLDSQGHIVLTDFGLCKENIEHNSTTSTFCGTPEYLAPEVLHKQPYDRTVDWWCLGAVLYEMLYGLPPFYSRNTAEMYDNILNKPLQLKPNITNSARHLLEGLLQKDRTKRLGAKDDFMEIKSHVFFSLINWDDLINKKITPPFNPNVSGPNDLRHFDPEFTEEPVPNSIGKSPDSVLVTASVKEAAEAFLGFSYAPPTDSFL", "assay": "Inhibition of human truncated SGK1 expressed in baculovirus assessed as substrate phosphorylation using fluorescence-labelled peptides as substrate at 70 uM after 90 mins by microfluidic peptide phosphorylation assay"}, "[10]": {"target": "Vascular endothelial growth factor receptor 2 (Homo sapiens) (UniProt P35968)", "assay": "Inhibition of human KDR cytoplasmic domain expressed in baculovirus assessed as substrate phosphorylation using fluorescence-labelled peptides as substrate at 70 uM after 90 mins by microfluidic peptide phosphorylation assay"}}, "data": [{"smiles": "NCCc1ccc(-c2ncnc3[nH]cnc23)cc1", "values": [{"measurement": "inhibition", "setting": "[1]", "result": 23.5, "unit": "%"}, {"measurement": "inhibition", "setting": "[2]", "result": 86.5, "unit": "%"}]}, {"smiles": "NCC1CCN(c2ncnc3[nH]ccc23)CC1", "values": [{"measurement": "inhibition", "setting": "[3]", "result": 50, "unit": "%"}]}, {"smiles": "NC1CCN(c2ncnc3[nH]ccc23)CC1", "values": [{"measurement": "inhibition", "setting": "[4]", "result": 0, "unit": "%"}]}, {"smiles": "c1cnc2[nH]ccc2c1", "values": [{"measurement": "inhibition", "setting": "[5]", "result": 95.5, "unit": "%"}]}, {"smiles": "NC1(Cc2ccc(Cl)cc2)CCN(c2ncnc3[nH]ccc23)CC1", "values": [{"measurement": "inhibition", "setting": "[6]", "result": 3.5, "unit": "%"}]}, {"smiles": "C[C@H](CN(C)C)Oc1nc(Nc2cc3cccc(Cl)c3cn2)cnc1C#N", "values": [{"measurement": "inhibition", "setting": "[7]", "result": 0.5, "unit": "%"}]}, {"smiles": "c1nc(N2CCOCC2)c2nc[nH]c2n1", "values": [{"measurement": "inhibition", "setting": "[8]", "result": 101, "unit": "%"}]}, {"smiles": "CNCc1ccc(-c2ncnc3[nH]cnc23)cc1", "values": [{"measurement": "inhibition", "setting": "[9]", "result": 48, "unit": "%"}, {"measurement": "inhibition", "setting": "[10]", "result": 64, "unit": "%"}]}]}
